Reference: patent US4904590A, “Antibiotic A80915 and process for its production” (Eli Lilly and Company, priority 1988, dated 1990)
Converted amounts (≈) assume the structure as drawn. Read-outs that look alike come from different tables or passages of the source.

Columns and labels:
[1] = system: Fusobacterium necrophorum 6054A; assay: Susceptibility of anaerobic bacterial isolates (MIC), agar-dilution; type: cell-based; conditions: Fusobacterium necrophorum 6054A; agar-dilution, 24-hour incubation; read-out: MIC
Trichomonas foetus = assay: Anti-protozoan activity (MIC); type: cell-based; conditions: Tritrichomonas foetus
[2] = system: Bacteriodes melaninogenicus 2736; assay: Susceptibility of anaerobic bacterial isolates (MIC), agar-dilution; type: cell-based; conditions: Bacteriodes melaninogenicus 2736; agar-dilution, 24-hour incubation; read-out: MIC
[3] = system: Fusobacterium symbiosum 1470; assay: as above; type: cell-based; conditions: Fusobacterium symbiosum 1470; agar-dilution, 24-hour incubation; read-out: MIC
[4] = system: Bacteriodes vulgatis 1211; assay: as above; type: cell-based; conditions: Bacteriodes vulgatis 1211; agar-dilution, 24-hour incubation; read-out: MIC
[5] = system: Clostridium difficile 2994; assay: as above; type: cell-based
[6] = system: Propionibacterium acnes 79; assay: as above; type: cell-based; conditions: Cutibacterium acnes; Propionibacterium acnes 79; agar-dilution, 24-hour incubation; read-out: MIC
[7] = system: Bacteriodes fragilis 1936B; assay: as above; type: cell-based; conditions: Bacteriodes fragilis 1936B; agar-dilution, 24-hour incubation; read-out: MIC
[8] = system: Eubacterium aerofaciens 1235; assay: as above; type: cell-based
[9] = system: Clostridium septicum 1128; assay: as above; type: cell-based; conditions: 24-hour incubation
Description: The A80915 antibiotics also are active against anaerobic bacteria. […] End points were read after 24-hour incubation.

Pasteurella multocida = type: cell-based; conditions: Veterinary organism Pasteurella multocida; agar-dilution
Description: (§1) The A80915 antibiotics inhibit the growth of bacteria which are pathogenic to animal life. […] The MIC's in Table III were determined by conventional agar-dilution assays.

Escherichia coli = type: cell-based; conditions: Veterinary organism Escherichia coli; agar-dilution
Description: as §1

[10] = system: Staphylococcus aureus V41; type: cell-based; conditions: Staphylococcus aureus V41; agar-dilution; read-out: MIC
Description: as §1

[11] = system: Streptococcus pneumoniae Park1; type: cell-based; conditions: Streptococcus pneumoniae Park1; agar-dilution; read-out: MIC
Description: as §1

Gram-negative = type: cell-based; conditions: agar-dilution
Description: as §1

Salmonella typhimurium = type: cell-based; conditions: Salmonella enterica; Veterinary organism Salmonella typhimurium; agar-dilution
Description: as §1

Mycoplasma gallisepticum = type: cell-based; conditions: Mycoplasmoides gallisepticum; Veterinary organism Mycoplasma gallisepticum; agar-dilution
Description: as §1

Staphylococcus sp. = type: cell-based; conditions: Veterinary organism Staphylococcus sp.; agar-dilution
Description: as §1

[12] = system: Streptococcus faecium X66; type: cell-based; conditions: Enterococcus faecium; Streptococcus faecium X66; agar-dilution; read-out: MIC
Description: as §1

[13] = system: Staphylococcus epidermis 222; type: cell-based; conditions: Staphylococcus epidermis 222; agar-dilution; read-out: MIC
Description: as §1

[14] = system: Staphylococcus aureus X400; type: cell-based; conditions: Staphylococcus aureus X400; agar-dilution; read-out: MIC
Description: as §1

[15] = system: Bordetella bronchiseptica; type: cell-based; conditions: Veterinary organism Bordetella bronchiseptica; agar-dilution
Description: as §1

[16] = system: Streptococcus pyogenes C203; type: cell-based; conditions: Streptococcus pyogenes C203; agar-dilution; read-out: MIC
Description: as §1

[17] = system: Staphylococcus epidermis EPI1; type: cell-based; conditions: Staphylococcus epidermis EPI1; agar-dilution; read-out: MIC
Description: as §1

Mycoplasma hyopneumoniae = type: cell-based; conditions: Mesomycoplasma hyopneumoniae; Veterinary organism Mycoplasma hyopneumoniae; agar-dilution
Description: as §1

[18] = system: Staphylococcus aureus X1.1; type: cell-based; conditions: Staphylococcus aureus X1.1; agar-dilution; read-out: MIC
Description: as §1

[19] = system: Streptococcus faecium 2041; type: cell-based; conditions: Enterococcus faecium; Streptococcus faecium 2041; agar-dilution; read-out: MIC
Description: as §1

Pasteurella hemolytica = type: cell-based; conditions: Veterinary organism Pasteurella hemolytica; agar-dilution
Description: as §1

Streptococcus sp. = type: cell-based; conditions: Veterinary organism Streptococcus sp.; agar-dilution
Description: as §1

Peptococcus prevoti 1281 = assay: Susceptibility of anaerobic bacterial isolates (MIC), agar-dilution; type: cell-based
[20] = system: Bacteriodes melaninogenicus 1856/28; assay: as above; type: cell-based; conditions: Bacteriodes melaninogenicus 1856/28; agar-dilution, 24-hour incubation; read-out: MIC
[21] = system: Peptostreptococcus intermedius 1264; assay: as above; type: cell-based
[22] = system: Clostridium perfringens 81; assay: microbe, parasite or virus in culture; type: cell-based; conditions: Clostridium perfringens, 81, 24 h
[23] = system: Bacteriodes thetaiotaomicron 1438; assay: Susceptibility of anaerobic bacterial isolates (MIC), agar-dilution; type: cell-based; conditions: Bacteriodes thetaiotaomicron 1438; agar-dilution, 24-hour incubation; read-out: MIC
Bacteriodes fragilis 111 = assay: as above; type: cell-based; conditions: Bacteriodes fragilis 111; agar-dilution, 24-hour incubation; read-out: MIC
[24] = system: Peptostreptococcus anaerobius 1428; assay: as above; type: cell-based; conditions: Peptostreptococcus anaerobius 1428; agar-dilution, 24-hour incubation; read-out: MIC
[25] = system: Bacteriodes fragilis 1877; assay: as above; type: cell-based; conditions: Bacteriodes fragilis 1877; agar-dilution, 24-hour incubation; read-out: MIC
Trichomonas vaginalis = assay: Anti-protozoan activity (MIC); type: cell-based
[26] = system: Bacteriodes corrodens 1874; assay: Susceptibility of anaerobic bacterial isolates (MIC), agar-dilution; type: cell-based; conditions: Bacteriodes corrodens 1874; agar-dilution, 24-hour incubation; read-out: MIC
[27] = system: Peptococcus asaccharolyticus 1302; assay: as above; type: cell-based
Candida albicans = assay: Anti-fungal activity (MIC); type: cell-based
[28] = Acute toxicity in mice, intraperitoneal injection; conditions: mouse, in vivo, ip
Excerpt: The acute toxicity of the A80915 antibiotics in mice, when administered by intraperitoneal injection and expressed as LD50, is shown in Table V.

[29] = Spontaneous loss of nitrogen on standing in solvent; type: physicochemical; conditions: standing at room temperature in a solvent such as methanol, ethanol or water
Excerpt: Loss of nitrogen is accelerated by, for example, heating or the addition of salts or mild reducing agents such as sodium hyposulfite, and the like.

C=C1CCC(Cl)C(C)(C)C1CC12OC(C)(C)C(Cl)CC1(Cl)C(=O)c1c(cc(O)c(C)c1O)C2=O (stereo not shown) [A80915A]
MIC [1]: > 128 µg/mL | MIC (Trichomonas foetus): 50 µg/mL (≈ 94.4 µM) | MIC [2]: > 128 µg/mL | MIC [3]: > 128 µg/mL | MIC [4]: > 128 µg/mL | MIC ([5]; Clostridioides difficile, 2994, 24 h): 4 µg/mL (≈ 7.55 µM) | MIC [6]: 32 µg/mL (≈ 60.4 µM) | MIC [7]: > 128 µg/mL | MIC ([8]; Collinsella aerofaciens, 1235, 24 h): 4 µg/mL (≈ 7.55 µM) | MIC [9]: 4 µg/mL (≈ 7.55 µM) | MIC (Pasteurella multocida): 3.12 µg/mL (≈ 5.89 µM) | MIC (Escherichia coli): > 50 µg/mL | MIC [10]: 2 µg/mL (≈ 3.77 µM) | MIC [11]: 32 µg/mL (≈ 60.4 µM) | MIC (Gram-negative): > 128 µg/mL | MIC (Salmonella typhimurium): > 50 µg/mL | MIC (Mycoplasma gallisepticum): 0.78 µg/mL (≈ 1.47 µM) | MIC (Staphylococcus sp.): 0.1 µg/mL (≈ 0.189 µM) | MIC [12]: 2 µg/mL (≈ 3.77 µM) | MIC [13]: 2 µg/mL (≈ 3.77 µM) | MIC [14]: 2 µg/mL (≈ 3.77 µM) | MIC [15]: > 50 µg/mL | MIC [16]: 32 µg/mL (≈ 60.4 µM) | MIC [17]: 2 µg/mL (≈ 3.77 µM) | MIC (Mycoplasma hyopneumoniae): 3.12 µg/mL (≈ 5.89 µM) | MIC [18]: 2 µg/mL (≈ 3.77 µM) | MIC [19]: 8 µg/mL (≈ 15.1 µM) | MIC (Pasteurella hemolytica): > 50 µg/mL | MIC (Streptococcus sp.): 0.2 µg/mL (≈ 0.377 µM) | MIC (Peptococcus prevoti 1281; 24 h): 4 µg/mL (≈ 7.55 µM) | MIC [20]: 2 µg/mL (≈ 3.77 µM) | MIC ([21]; Peptostreptococcus, 1264, 24 h): 4 µg/mL (≈ 7.55 µM) | MIC [22]: 4 µg/mL (≈ 7.55 µM) | MIC [23]: > 128 µg/mL | MIC (Bacteriodes fragilis 111): > 128 µg/mL | MIC [24]: > 128 µg/mL | MIC [25]: > 128 µg/mL | MIC (Trichomonas vaginalis): 12.5 µg/mL (≈ 23.6 µM) | MIC [26]: > 128 µg/mL | MIC ([27]; Peptoniphilus asaccharolyticus, Peptococcus asaccharolyticus 1302, agar-dilution, 24-hour incubation, read-out: MIC): 16 µg/mL (≈ 30.2 µM) | MIC (Candida albicans): > 40 µg/mL | LD50 [28]: 212 mg/kg

Cc1c([O-])c([N+]#N)c2c(c1O)C(=O)[C@@]1(Cl)C[C@@H](Cl)C(C)(C)O[C@@]1(C[C@H]1C(C)(C)[C@@H](Cl)CC[C@]1(C)O)C2=O [A80915D]
MIC [1]: 8 µg/mL (≈ 13.9 µM) | MIC (Trichomonas foetus): 25 µg/mL (≈ 43.6 µM) | MIC [2]: > 128 µg/mL | MIC [3]: > 128 µg/mL | MIC [4]: > 128 µg/mL | MIC ([5]; Clostridioides difficile, Clostridium difficile 2994, agar-dilution, 24-hour incubation, read-out: MIC): 16 µg/mL (≈ 27.9 µM) | MIC [6]: 16 µg/mL (≈ 27.9 µM) | MIC [7]: 8 µg/mL (≈ 13.9 µM) | MIC ([8]; Collinsella aerofaciens, Eubacterium aerofaciens 1235, agar-dilution, 24-hour incubation, read-out: MIC): 16 µg/mL (≈ 27.9 µM) | loss of nitrogen (stability) [29]: spontaneously lose nitrogen | MIC [9]: 16 µg/mL (≈ 27.9 µM) | MIC (Pasteurella multocida): 3.12 µg/mL (≈ 5.44 µM) | MIC (Escherichia coli): > 50 µg/mL | MIC [10]: 2 µg/mL (≈ 3.48 µM) | MIC [11]: 1 µg/mL (≈ 1.74 µM) | MIC (Gram-negative): > 128 µg/mL | MIC (Salmonella typhimurium): > 50 µg/mL | MIC (Mycoplasma gallisepticum): > 50 µg/mL | MIC (Staphylococcus sp.): 0.2 µg/mL (≈ 0.348 µM) | MIC [12]: 32 µg/mL (≈ 55.8 µM) | MIC [13]: 1 µg/mL (≈ 1.74 µM) | MIC [14]: 2 µg/mL (≈ 3.48 µM) | MIC [15]: > 50 µg/mL | MIC [16]: 2 µg/mL (≈ 3.48 µM) | MIC [17]: 2 µg/mL (≈ 3.48 µM) | MIC (Mycoplasma hyopneumoniae): 25 µg/mL (≈ 43.6 µM) | MIC [18]: 1 µg/mL (≈ 1.74 µM) | MIC [19]: 32 µg/mL (≈ 55.8 µM) | MIC (Pasteurella hemolytica): 12.5 µg/mL (≈ 21.8 µM) | MIC (Streptococcus sp.): 3.12 µg/mL (≈ 5.44 µM) | MIC (Peptococcus prevoti 1281; Peptococcus prevoti 1281, agar-dilution, 24-hour incubation, read-out: MIC): 8 µg/mL (≈ 13.9 µM) | MIC [20]: 32 µg/mL (≈ 55.8 µM) | MIC ([21]; Peptostreptococcus intermedius 1264, agar-dilution, 24-hour incubation, read-out: MIC): 128 µg/mL (≈ 223 µM) | MIC [22]: 16 µg/mL (≈ 27.9 µM) | MIC [23]: > 128 µg/mL | MIC (Bacteriodes fragilis 111): 16 µg/mL (≈ 27.9 µM) | MIC [24]: 8 µg/mL (≈ 13.9 µM) | MIC [25]: 16 µg/mL (≈ 27.9 µM) | MIC (Trichomonas vaginalis): 25 µg/mL (≈ 43.6 µM) | MIC [26]: > 128 µg/mL | MIC ([27]; Peptoniphilus asaccharolyticus, 1302, 24 h): 4 µg/mL (≈ 6.97 µM) | MIC (Candida albicans): 10 µg/mL (≈ 17.4 µM) | LD50 [28]: 11.8 mg/kg
